Measured values reported in patent publication US20130025073A1, “DETERGENT COMPOSITIONS” (priority 2011, published 2013).

Target: T1, Protease (Purafect Prime®) (Bacillus amyloliquefaciens, UniProt P00782, Y324L)
T1 construct: purchased Genencor International, Palo Alto Purafect Prime®
Test: Stability of Protease in amine neutralized-anionic surfactant-containing detergent (Example 10) after incubation
Type: physicochemical
Conditions: Detergent example 10, pH 8.2, 3 weeks and 6 weeks 30° C., versus a nil PBA reference
Protocol: Test of stability of Protease in an Amine Neutralized-Anionic Surfactant-Containing Detergent after Incubation in Detergent, Example 10, at pH 8.2
A detergent composition, example 10, nil enzyme, nil calcium chloride dihydrate and nil phenylboronic acid (PBA), balanced to pH 8.2 using monoethanolamine, was prepared.
The protease, that sold under the trade name of Purafect Prime®, by Genencor International, Palo Alto (38.7 mg active Protease protein in 100 g detergent), was added to the above detergent. Each detergent sample was determined for the initial residual enzyme activity before incubation (Initial reference samples).
The residual enzyme activity for each sample was determined after incubation at 30° C. for 3 weeks and 6 weeks and compared to their reference sample. The residual activity was determined using the standard enzyme activity assays for the relevant enzyme.
Detergent formulations A-D, 5 g pH 8.2, were placed in duplicate into a 7 ml glass vial with an air tight lid. The residual enzyme activity was determined for the initial samples, in duplicate, before incubation.
The samples were placed into an incubator for 3 weeks and 6 weeks at 30° C. Immediately after incubation, the samples were analysed for both residual Protease. In this test the residual activity of 100% equals no loss of Protease activity compared to initial residual enzyme activity before incubation.

T1 sequence (P00782 108-382 Y324L): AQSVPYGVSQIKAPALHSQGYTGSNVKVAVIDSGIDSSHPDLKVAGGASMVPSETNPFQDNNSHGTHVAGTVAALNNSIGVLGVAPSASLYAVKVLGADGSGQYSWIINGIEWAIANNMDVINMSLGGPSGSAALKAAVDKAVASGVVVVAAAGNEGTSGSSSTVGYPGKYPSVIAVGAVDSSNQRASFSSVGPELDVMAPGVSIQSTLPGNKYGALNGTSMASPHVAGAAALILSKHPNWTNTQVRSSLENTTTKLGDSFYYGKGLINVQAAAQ

Structure (SMILES): OB(O)c1ccccc1 [PBA, phenylboronic acid]
- Effect of PBA addition on stability of the Protease: significantly improves stability of the Protease
